Data on eight compounds can be found in article PMC10531168, “Development of Stable Amino-Pyrimidine–Curcumin Analogs: Synthesis, Equilibria in Solution, and Potential Anti-Proliferative Activity” (International Journal of Molecular Sciences, 2023).

Like-named read-outs stand apart in the source and are kept apart here. Bounds are passed on as bounds.

For data set [1], the system named is PC3 cells. The data set can be described thus: Cell viability assay (Presto Blue), 48 h. The following applies: PC3, 48 h treatment, mean of three independent experiments, n.a. = not active at tested concentrations (≤100 µM). It counts as cell-based, human. The method, then: (§1) To determine the anti-proliferative activity of the compounds on cancer cells, we performed dose–response treatments for 48 h on androgen-sensitive and androgen-insensitive PCa cells (LNCaP and PC3, respectively), as well as CRC cell lines (HCT116 and HT29).
(§2) The human colon cell lines, HT29 (ATCC Cat# HTB-38) and HCT116 (ATCC Cat# CCL-247), were grown in DMEM High-Glucose Medium (Biowest, Nuaillé, France), while the human prostate cell lines, PC3 (ATCC Cat# CRL-1435) and LNCaP (ATCC Cat# CRL-1740), were grown in Ham’s F12 (Biowest, Nuaillé, France) and RPMI 1640 (Biowest, Nuaillé, France), respectively. All media were supplemented with 2 mM glutamine, 100 IU/mL penicillin, 100 μg/mL streptomycin, and 10% fetal bovine serum (FBS, Gibco, Fisher Scientific Italia, Segrate (MI), Italia)). The cells were grown at 37 °C in a humified 5% CO2 atmosphere.
(§3) HCT116, HT29, PC3, or LNCaP cells were seeded into a 96-well plate at a density of 5000 cells/well. Cells were treated with eight different concentrations of pyrimidine derivates and curcumin for 48 h, at concentrations starting at 30 μM with 2-fold serial dilutions for curcumin and starting at 100 μM with 3-fold serial dilutions for pyrimidine derivates. Cell viability was measured using Presto Blue cell viability reagent (#A13261, Thermo Fisher Scientific, Waltham, MA, USA), according to the manufacturer’s protocol. The concentration at which cellular growth is inhibited by 50% (GI50) was determined.

The test system of data set [2] is HT29 cells. The data set can be described thus: Cell viability assay (Presto Blue), 48 h. It is filed as cell-based. The following applies: Homo sapiens, HT-29; HT29, 48 h treatment, mean of three independent experiments; n.a. = not active at tested concentrations (≤100 µM). The protocol: as §1, §2, §3
In data set [3] the test system is HCT116 cells. Put plainly: Cell viability assay (Presto Blue), 48 h. It counts as cell-based. The following applies: Homo sapiens, HCT-116; HCT116, 48 h treatment, mean of three independent experiments; n.a. = not active at tested concentrations (≤100 µM). The method, then:
as §1, §2, §3

In data set [4] the test system is LNCaP cells. Put plainly: Cell cycle analysis (propidium iodide cytofluorimetry). It is filed as cell-based, human. Conditions: 48 h at GI50 dose; for % cells SubG1 (apoptotic cells): DMSO control 0.9; for % cells S: DMSO control 12.5; for % cells G2/M: DMSO control 18.4; for % cells G0/G1: DMSO control 65.1. The method, then:
(§4) To further investigate the effects of PY1 and PY3 on cell growth, we analyzed the cell cycle progression of LNCaP cells treated at GI50 doses for 48 h (Figure 6 and Figure S4). […] Compared to curcumin, PY1 induced a similar but enhanced effect on the cell cycle, with apoptosis and S-phase being 9.6% and 6.4%, respectively. […] This effect was similarly observed in PC3 and HCT116 cells, with G2/M cells increasing from 14.6% to 62% in PC3 and from 17% to 33% in HCT116 cells (Figure S4).
(§5) Cells were seeded into a 24-well plate at a density of 35,000 cells/well and harvested after 48 h of treatment at GI50 concentrations. Cell cycle analysis of cells stained with propidium iodide solution (propidium iodide 25 µg/mL, Na-Citrate 3.4 mM, NaCl 9.65 mM, NP-40 0.03%) was performed using an Attune Next cytofluorimeter (Thermo Fisher Scientific, Waltham, MA, USA). DMSO was used as the control. Statistical analysis was performed with GraphPad PRISM 6 software (GraphPad Prism), using two-way ANOVA as specified in the figure legends. Graph represents means ± standard errors of the mean (SEM), n = 3. Data were considered to be statistically significant if p < 0.05 (*), p < 0.01 (**), p < 0.001(***), and p < 0.0001 (****).

In data set [5] the test system is LNCaP cells. The data set can be described thus: Cell viability assay (Presto Blue), 48 h. Conditions: 48 h treatment, mean of three independent experiments, n.a. = not active at tested concentrations (≤100 µM). It is filed as cell-based, human. The method, then: as §1, §2, §3
Details of data set [6]: method as in doi:10.1016/S0020-1693(01)00687-9. Conditions: cited from earlier work.
Data set [7] concerns HT29 cells. Further details: method as in PMID 27614381. The following applies: read-out: GI50 (printed IG50), HT29 cell proliferation; cited from earlier work.
Data set [8] can be described thus: UV-Vis pH-metric spectrophotometric titration, protonation constants (HypSpec). The following applies: 298 K; for pKa: aqueous solution with <2% v/v methanol. It is filed as physicochemical. The text has this:
Pyrimidine derivatives can be considered weak bases, and the pyrimidine nitrogens are protonated in extremely acid conditions (pH < 1), while the NH2 group has a pKa around 5 depending on the electronic effects of the substituents on the aromatic rings. As a consequence, the amino-pyrimidine moiety is in the neutral form at physiological pH (7.4). Among the synthesized compounds, MPY1, MPY3, and PY1 are characterized by additional acid/base moieties, particularly a phenolic group in the meta position for MPY1 and PY1 and an additional primary aliphatic amine for MPY3. To estimate the protonation constants, UV-visible spectroscopy was preferred over potentiometry since the lower concentration range that is required allows it to work in an aqueous medium with a negligible percentage of methanol (<2% v/v). Figure 3 reports the UV-Vis pH-metric titration of MPY1 in the pH range of 2–11. In extremely acid conditions (pH 2, red spectrum), the amine group on the pyrimidine ring is fully protonated, and the molecule is positively charged (H2L^+). The maximum absorbance is observed at 400 nm, with a shoulder at 500 nm. […] Finally, in basic conditions (pH 11, blue spectrum) the phenolic group is deprotonated, and a negatively charged species is observed (L^−) with λmax at 406 nm. […] By plotting the absorbance value vs. pH at λmax, a titration curve is observed ([…]), with two equivalent points around pH = 5 and pH = 9. […] PY1 (Figure S3) is fully protonated below pH 5 (H3L+) and negatively charged in basic conditions (HL^−, L^2−). To estimate protonation constants and pKa values, spectrophotometric data were elaborated using Hypspec, and the logβ values, together with pKa, are reported in Table 1.
To perform spectrophotometric titrations, ligands (denoted generally as L in the following) were dissolved in methanol to give a mother solution (2.50 mM) that was then diluted in water to a final volume of 25 mL in order to obtain a 25/50 μM concentration, depending on the compound, in order to have a maximum absorbance in a range of 0.4–1. The pH (initial value ~5) was varied by adding small amounts (1 μL) of concentrated NaOH/HCl (4 M) in order to investigate the spectral behavior of the 2–11 pH range. In these conditions, the volume variations were negligible. A constant ionic strength (NaNO3, 0.1 M) was maintained in all the experiments. The overall protonation constants (βqr) are defined by the following equations:qL^l− + rH^+ ⇌ [LqHr]^(r − ql)(1) (2) βqr=LqHr^r − ql/L^−l]^q · H^+]^r where L is the ligand in the completely dissociated form and H is a proton. βqr values were refined from spectrophotometric data using least-squares calculations in HypSpec. The results of least-squares calculations include the standard deviations and correlation coefficients of the refined parameters. The quantities were obtained by performing error propagation calculations from the experimental errors on the parameters. The stability constant refinement furnishes least-squares estimates of the standard deviation, σ, of the stability constant, β. The error on logβ is calculated as follows: σ(logβ) = [log(β + σ) − log(β − σ)]/2, as previously reported.

Data set [9] deals with HCT116 cells. The data set can be described thus: Cell cycle analysis (propidium iodide cytofluorimetry). It is filed as cell-based, human. The following applies: HCT116, 48 h at GI50 dose; control 17%. The protocol: as §4, §5
Data set [10] relates to PC3 cells. The data set is described as above. The following applies: PC3, 48 h at GI50 dose; control 14.6%. It counts as cell-based, human. The protocol: as §4, §5
[11] abbreviates: aqueous solution, spectrophotometric data, HypSpec.
The mark [12] stands for this setting: logβ11 (MPY1, MPY3) or logβ12 − logβ11 (PY1), read-out: pKa2.
The mark [13] stands for this setting: logβ12 − logβ11 (MPY1, MPY3) or logβ13 − logβ12 (PY1), read-out: pKa1.

In turn, “4,6-bis[(E)-2-(3-methoxyphenyl)ethenyl]pyrimidin-2-amine [PY4]” yielded a GI50 in data set [1] of 82.8 ± 23.4 µM.
On to `COc1cc(/C=C/C(=O)CC(=O)/C=C/c2ccc(O)c(OC)c2)ccc1O` [Curcumin, (1E,6E)-1,7-bis (4-hydroxy-3-methoxyphenyl)-1,6-heptadiene-3,5-dione], for which the GI50 in data set [2] was above 30 µM. The compound further came in with a GI50 in data set [3] of 13.6 ± 2.9 µM. Besides, in [4], the “% cells SubG1 (apoptotic cells)” value is 7.2%, the “% cells S” value is on record as 9.7%, the “% cells G2/M” value is 22.3% and the “% cells G0/G1” value is 58.4%. Also, the GI50 in [5] (Homo sapiens, 48 h) is above 30 µM. Moreover, the GI50 in data set [1] (Homo sapiens, PC-3, 48 h) came out at 23.9 ± 0.4 µM. Also, the “pKa of keto-enol moiety” value in data set [6] was 8.56.
Turning to `COc1ccc(/C=C/C(=O)CC(=O)/C=C/c2ccc(OC)c(OC)c2)cc1OC` [DiMC, bis-dimethoxycurcumin], the GI50 in data set [7] was 43.4 µM.
Take `COc1cc(/C=C/c2cc(C)nc(N)n2)ccc1O` [MPY1, 4-[(E)-2-(2-amino-6-methylpyrimidin-4-yl)ethenyl]-2-methoxyphenol]: in data set [8] (setting [11]), the “logβ11 (overall protonation constant)” value was determined as 8.99 ± 0.01 and the “logβ12 (overall protonation constant)” value is given as 13.72 ± 0.01. The pKa in data set [8] (setting [12]) turned out to be 8.99 ± 0.01. In data set [8] (setting [13]), the pKa was found to be 4.73 ± 0.02. The GI50 in data set [5] (Homo sapiens, 48 h) worked out at 73.9 ± 9.9 µM.
In the case of `COc1ccc(/C=C/c2cc(C)nc(N)n2)cc1OC` [MPY2, 4-[(E)-2-(3,4-dimethoxyphenyl)ethenyl]-6-methylpyrimidin-2-amine], the GI50 in data set [5] (Homo sapiens, 48 h) was determined as 73.1 ± 14 µM; in [1] (Homo sapiens, PC-3, 48 h), 84.4 ± 0.1 µM.
Regarding `COc1cc(/C=C/c2cc(C)nc(N)n2)ccc1OCCCN` [MPY3, 4-{(E)-2-[4-(3-aminopropoxy)-3-methoxyphenyl]ethenyl}-6-methylpyrimidin-2-amine], the GI50 was determined as 98 ± 13.6 µM in [3] and 68.8 ± 21.7 µM in [5] (Homo sapiens, 48 h). Moreover, the “logβ11 (overall protonation constant)” value in [8] (setting [11]) came out at 8.62 ± 0.01. Also, the “logβ12 (overall protonation constant)” value in data set [8] (setting [11]) came out at 13.04 ± 0.01. Also, the pKa came to 8.62 ± 0.01 in [8] (setting [12]) and 4.43 ± 0.02 in data set [8] (setting [13]).
Turning to `COc1cc(/C=C/c2cc(/C=C/c3ccc(O)c(OC)c3)nc(N)n2)ccc1O` [PY1, 4,4′-{(2-aminopyrimidine-4,6-diyl)di[(E)ethene-2,1-diyl]}bis(2-methoxyphenol)], the GI50 is 45.3 ± 4.1 µM in data set [2]; 19.9 ± 3.3 µM in [3]; 24.1 ± 8.5 µM in data set [5]; around 24 µM in [5] (Homo sapiens, 48 h); around 24 µM in data set [1] (Homo sapiens, PC-3, 48 h); 23.5 ± 9.7 µM in [1]. The “% cells SubG1 (apoptotic cells)” value in data set [4] came to 9.6%. The “% cells S” value in data set [4] is recorded as 6.4%. For the same compound, the “% cells G2/M” value in data set [4] turned out to be 24.8%. For the same compound, the “% cells G0/G1” value in [4] stood at 57.8%. In addition, in data set [8] (setting [11]), the “logβ11 (overall protonation constant)” value came out at 10.27 ± 0.03. The “logβ12 (overall protonation constant)” value in data set [8] (setting [11]) came to 19.30 ± 0.02. For the same compound, in data set [8] (setting [11]), the “logβ13 (overall protonation constant)” value stood at 24.17 ± 0.05. The pKa in [8] (setting [12]) turned out to be 9.04 ± 0.05; in data set [8] (setting [13]), 4.86 ± 0.07; in data set [8] (pKa3 = logβ11, read-out: pKa3) it was 10.27 ± 0.03.
Take `COc1ccc(/C=C/c2cc(/C=C/c3ccc(OC)c(OC)c3)nc(N)n2)cc1OC` [PY3, 4,6-bis[(E)-2-(3,4-dimethoxyphenyl)ethenyl]pyrimidin-2-amine]: the GI50 in data set [2] was 19.7 ± 1.1 µM; in data set [3], 37.9 ± 11.6 µM; in [5] (Homo sapiens, 48 h) it was 12.1 ± 2 µM; in [1] (Homo sapiens, PC-3, 48 h), 14.7 ± 0.9 µM. The “% cells SubG1 (apoptotic cells)” value in data set [4] is listed as 4.7%. The “% cells S” value in data set [4] is listed as 4.7%. Besides, the results for the “% cells G2/M” value in data set [4], in [9] and in [10] were 54.6%, 33% and 62%, respectively. The “% cells G0/G1” value in data set [4] is 32.8%.
